Measured values as given in ChEMBL document CHEMBL4359901, “Cyclic enaminone as new chemotype for selective cyclooxygenase-2 inhibitory, anti-inflammatory, and analgesic activities” (Eur J Med Chem, 2019).

Experiments:
Rattus norvegicus [1] = test: Antiinflammatory activity in Wistar albino rat assessed as reduction in carrageenan-induced paw volume at 12.5 mg/kg, ip measured after 3 hrs by plethysmometric method (reference value: 1.75 +/- 0.33 ml); assay type: functional
Rattus norvegicus [2] = test: Antiinflammatory activity in Sprague-Dawley rat model of carrageenan-induced thermal hyperalgesia assessed as paw withdrawal latency time at 50 mg/kg, po administered 1 hr prior to carrageenan challenge and measured after 5 hrs by planter test (reference value: 7.5 +/- 0.74 sec); assay type: functional
Rattus norvegicus [3] = test: Analgesic activity in Wistar albino rat assessed as reaction time at 12.5 mg/kg, ip measured after 60 mins for 15 secs by hot plate method (reference value: 4.67 +/- 0.52 sec); assay type: functional
Rattus norvegicus [4] = test: Antiinflammatory activity in Sprague-Dawley rat model of carrageenan-induced thermal hyperalgesia assessed as paw withdrawal latency time at 50 mg/kg, po administered 1 hr prior to carrageenan challenge and measured after 2 hrs by planter test (reference value: 6.17 +/- 0.58 sec); assay type: functional
Rattus norvegicus [5] = test: Analgesic activity in Wistar albino rat assessed as reaction time at 25 mg/kg, ip measured after 60 mins for 15 secs by hot plate method (reference value: 4.67 +/- 0.52 sec); assay type: functional
Rattus norvegicus [6] = test: Antiinflammatory activity in Sprague-Dawley rat model of carrageenan-induced thermal hyperalgesia assessed as paw withdrawal latency pressure at 50 mg/kg, po administered 1 hr prior to carrageenan challenge and measured after 2 hrs by Randall-Selitto test (reference value: 231.13 +/- 3.15 g); assay type: functional
Rattus norvegicus [7] = test: Antiinflammatory activity in Wistar albino rat assessed as reduction in carrageenan-induced paw edema at 25 mg/kg, ip measured after 2 hrs by plethysmometric method (reference value: 1.58 +/- 0.21 ml); assay type: functional
Rattus norvegicus [8] = test: Antiinflammatory activity in Sprague-Dawley rat model of carrageenan-induced thermal hyperalgesia assessed as paw withdrawal latency pressure at 50 mg/kg, po administered 1 hr prior to carrageenan challenge and measured after 1 hr by Randall-Selitto test (reference value: 246.55 +/- 1.05 g); assay type: functional
Rattus norvegicus [9] = test: Analgesic activity in Wistar albino rat assessed as reaction time at 12.5 mg/kg, ip measured after 30 mins for 15 secs by hot plate method (reference value: 4.21 +/- 0.41 sec); assay type: functional
Rattus norvegicus [10] = test: Antiinflammatory activity in Sprague-Dawley rat model of carrageenan-induced thermal hyperalgesia assessed as paw withdrawal latency pressure at 50 mg/kg, po administered 1 hr prior to carrageenan challenge and measured after 3 hrs by Randall-Selitto test (reference value: […] g); assay type: functional
Rattus norvegicus [11] = test: Antiinflammatory activity in Sprague-Dawley rat model of carrageenan-induced thermal hyperalgesia assessed as paw withdrawal latency pressure at 50 mg/kg, po administered 1 hr prior to carrageenan challenge and measured after 1 hr by Von-frey test (reference value: 159.88 +/- 4.66 g); assay type: functional
Rattus norvegicus [12] = test: Antiinflammatory activity in Wistar albino rat assessed as reduction in carrageenan-induced paw edema at 25 mg/kg, ip measured after 3 hrs by plethysmometric method (reference value: 1.75 +/- 0.33 ml); assay type: functional
Rattus norvegicus [13] = test: Antiinflammatory activity in Sprague-Dawley rat model of carrageenan-induced thermal hyperalgesia assessed as paw withdrawal latency pressure at 50 mg/kg, po administered 1 hr prior to carrageenan challenge and measured after 3 hrs by Randall-Selitto test (reference value: 176.84 +/- 8.1 g); assay type: functional
Rattus norvegicus [14] = test: Antiinflammatory activity in Wistar albino rat assessed as reduction in carrageenan-induced paw volume at 12.5 mg/kg, ip measured after 1 hr by plethysmometric method (reference value: 1.43 +/- 0.19 ml); assay type: functional
Rattus norvegicus [15] = test: Antiinflammatory activity in Sprague-Dawley rat model of carrageenan-induced thermal hyperalgesia assessed as paw withdrawal latency pressure at 50 mg/kg, po administered 1 hr prior to carrageenan challenge and measured after 3 hrs by Von-frey test (reference value: 31.65 +/- 3.33 g); assay type: functional
Rattus norvegicus [16] = test: Antiinflammatory activity in Sprague-Dawley rat model of carrageenan-induced thermal hyperalgesia assessed as paw withdrawal latency pressure at 50 mg/kg, po administered 1 hr prior to carrageenan challenge and measured after 2 hrs by Von-frey test (reference value: 146.47 +/- 5.12 g); assay type: functional
Rattus norvegicus [17] = test: Antiinflammatory activity in Sprague-Dawley rat model of carrageenan-induced thermal hyperalgesia assessed as paw withdrawal latency time at 50 mg/kg, po administered 1 hr prior to carrageenan challenge and measured after 3 hrs by planter test (reference value: 4.13 +/- 0.45 sec); assay type: functional
Rattus norvegicus [18] = test: Analgesic activity in Wistar albino rat assessed as reaction time at 25 mg/kg, ip measured after 120 mins for 15 secs by hot plate method (reference value: 4.32 +/- 0.52 sec); assay type: functional
Rattus norvegicus [19] = test: Antiinflammatory activity in Wistar albino rat assessed as reduction in carrageenan-induced paw volume at 12.5 mg/kg, ip measured after 2 hrs by plethysmometric method (reference value: 1.58 +/- 0.21 ml); assay type: functional
Rattus norvegicus [20] = test: Analgesic activity in Wistar albino rat assessed as reaction time at 25 mg/kg, ip measured after 180 mins for 15 secs by hot plate method (reference value: 3.87 +/- 0.38 sec); assay type: functional
Rattus norvegicus [21] = test: Analgesic activity in Wistar albino rat assessed as reaction time at 12.5 mg/kg, ip measured after 120 mins for 15 secs by hot plate method (reference value: 4.32 +/- 0.52 sec); assay type: functional
Rattus norvegicus [22] = test: Antiinflammatory activity in Sprague-Dawley rat model of carrageenan-induced thermal hyperalgesia assessed as paw withdrawal latency time at 50 mg/kg, po administered 1 hr prior to carrageenan challenge and measured after 4 hrs by planter test (reference value: 5.47 +/- 0.84 sec); assay type: functional
Rattus norvegicus [23] = test: Antiinflammatory activity in Sprague-Dawley rat model of carrageenan-induced thermal hyperalgesia assessed as paw withdrawal latency pressure at 50 mg/kg, po administered 1 hr prior to carrageenan challenge and measured after 3 hrs by Von-frey test (reference value: 146.61 +/- 1.58 g); assay type: functional
Rattus norvegicus [24] = test: Analgesic activity in Wistar albino rat assessed as reaction time at 25 mg/kg, ip measured after 30 mins for 15 secs by hot plate method (reference value: 4.21 +/- 0.41 sec); assay type: functional
Rattus norvegicus [25] = test: Antiinflammatory activity in Sprague-Dawley rat model of carrageenan-induced thermal hyperalgesia assessed as paw withdrawal latency pressure at 50 mg/kg, po administered 1 hr prior to carrageenan challenge and measured after 5 hrs by Von-frey test (reference value: 169.58 +/- 4.26 g); assay type: functional
Rattus norvegicus [26] = test: Antiinflammatory activity in Sprague-Dawley rat model of carrageenan-induced thermal hyperalgesia assessed as paw withdrawal latency time at 50 mg/kg, po administered 1 hr prior to carrageenan challenge and measured after 1 hr by planter test (reference value: 8.88 +/- 0.52 sec); assay type: functional
Rattus norvegicus [27] = test: Antiinflammatory activity in Wistar albino rat assessed as reduction in carrageenan-induced paw edema at 25 mg/kg, ip measured after 1 hr by plethysmometric method (reference value: 1.43 +/- 0.19 ml); assay type: functional
Rattus norvegicus [28] = test: Analgesic activity in Wistar albino rat assessed as reaction time at 12.5 mg/kg, ip measured after 180 mins for 15 secs by hot plate method (reference value: 3.87 +/- 0.38 sec); assay type: functional
[29] = target: Prostaglandin G/H synthase 2 (Homo sapiens) (UniProt P35354); test: Inhibition of recombinant human COX2 assessed as reduction in PGF2alpha at 10 uM incubated for 2 mins using arachidonic acid as substrate by ELISA relative to control
[30] = target: Prostaglandin G/H synthase 1 (Ovis aries) (UniProt P05979); test: Inhibition of ovine COX1 assessed as reduction in PGF2alpha at 10 uM incubated for 2 mins using arachidonic acid as substrate by ELISA relative to control
[31] = Ulcerogenicity in Sprague-Dawley rat assessed as formation of ulcer at 20 mg/kg, po after 1 hr by microscopic analysis; assay type: toxicity, organism-based; details: in vivo
[32] = Selectivity index, ratio of IC50 for inhibition of ovine COX1 to IC50 for inhibition of recombinant human COX2
[33] = Antioxidant activity assessed as DPPH radical scavenging activity incubated for 20 mins by spectrophotometric method; assay type: functional
[34] = Antioxidant activity assessed as DPPH radical scavenging activity at 100 uM/ml incubated for 20 mins by spectrophotometric method relative to control; assay type: functional
[35] = Antioxidant activity assessed as DPPH radical scavenging activity at 40 uM/ml incubated for 20 mins by spectrophotometric method relative to control; assay type: functional
[36] = Antioxidant activity assessed as DPPH radical scavenging activity at 20 uM/ml incubated for 20 mins by spectrophotometric method relative to control; assay type: functional
[37] = Antioxidant activity assessed as DPPH radical scavenging activity at 60 uM/ml incubated for 20 mins by spectrophotometric method relative to control; assay type: functional
[38] = Antioxidant activity assessed as DPPH radical scavenging activity at 10 uM/ml incubated for 20 mins by spectrophotometric method relative to control; assay type: functional
[39] = Antioxidant activity assessed as DPPH radical scavenging activity at 80 uM/ml incubated for 20 mins by spectrophotometric method relative to control; assay type: functional

Cc1ccc(-c2cc(C(F)(F)F)nn2-c2ccc(S(N)(=O)=O)cc2)cc1 [CELECOXIB]
Activity (Rattus norvegicus [1]): 1.36 mL | Time (Rattus norvegicus [2]): 9.22 s | Time (Rattus norvegicus [3]): 8.93 s | Time (Rattus norvegicus [4]): 10.98 s | Time (Rattus norvegicus [5]): 8.93 s | Activity (Rattus norvegicus [6]): 273.46 g | Activity (Rattus norvegicus [7]): 1.23 mL | Activity (Rattus norvegicus [8]): 270.89 g | Time (Rattus norvegicus [9]): 5.75 s | Activity (Rattus norvegicus [10]): 269.55 g | Activity (Rattus norvegicus [11]): 176.45 g | Activity (Rattus norvegicus [12]): 1.16 mL | Activity (Rattus norvegicus [13]): 270.66 g | Activity (Rattus norvegicus [14]): 1.34 mL | Activity (Rattus norvegicus [15]): 176.87 g | Activity (Rattus norvegicus [16]): 176.63 g | Time (Rattus norvegicus [17]): 9.48 s | Time (Rattus norvegicus [18]): 12.08 s | Activity (Rattus norvegicus [19]): 1.38 mL | Time (Rattus norvegicus [20]): 10.87 s | Time (Rattus norvegicus [21]): 10.98 s | Time (Rattus norvegicus [22]): 8.36 s | Activity (Rattus norvegicus [23]): 176.87 g | Time (Rattus norvegicus [24]): 6.34 s | Activity (Rattus norvegicus [25]): 180.82 g | Time (Rattus norvegicus [26]): 11.54 s | Activity (Rattus norvegicus [27]): 1.3 mL | Time (Rattus norvegicus [28]): 9.92 s

COc1ccc(NC2=CC(=O)CCC2)cc1
inhibition [29]: 36.6% | inhibition [30]: 10.7%

CC1(C)CC(=O)C=C(NCc2ccco2)C1
inhibition [29]: 43.9% | inhibition [30]: 28.6%

O=C1C=C(NCc2ccco2)CCC1
inhibition [29]: 48.4% | inhibition [30]: 27.2%

O=C1C=C(NCc2ccco2)CC1
inhibition [29]: 41.4% | inhibition [30]: 30.5%

O=C1C=C(NCc2ccccc2)CCC1
inhibition [29]: 40.5% | inhibition [30]: 24.2%

O=C1C=C(NN2CCCCC2)CCC1
inhibition [29]: 43.2% | inhibition [30]: 11.3%

COc1ccc2c(c1)c(CC(=O)O)c(C)n2C(=O)c1ccc(Cl)cc1 [INDOMETHACIN]
Activity [31]: Toxic

CSc1ccc(NC2=CC(=O)CCC2)cc1
inhibition [29]: 27.8% | inhibition [30]: 12.8%

O=C1C=C(Nc2nc3ccccc3s2)CCC1
inhibition [29]: 34% | inhibition [30]: 5.14%

CC(C)(C)OC(=O)N(C1=CC(=O)CCC1)c1ccc(Cl)cc1
Activity (Rattus norvegicus [1]): 1.18 mL | Time (Rattus norvegicus [3]): 6.29 s | Time (Rattus norvegicus [5]): 6.87 s | inhibition [29]: 73.5% | Ratio IC50 [32]: 19.4 | Activity (Rattus norvegicus [7]): 1.24 mL | Time (Rattus norvegicus [9]): 5.59 s | inhibition [30]: 30.5% | Activity (Rattus norvegicus [12]): 1.19 mL | Activity (Rattus norvegicus [14]): 1.24 mL | Time (Rattus norvegicus [18]): 9.98 s | IC50 [33]: 42.6 µM | Activity (Rattus norvegicus [19]): 1.28 mL | Activity [34]: 89.1% | Time (Rattus norvegicus [20]): 7.85 s | Activity [35]: 49.6% | Activity [36]: 36.5% | Time (Rattus norvegicus [21]): 7.99 s | Activity [37]: 63% | Time (Rattus norvegicus [24]): 6.53 s | Activity [38]: 23.1% | Activity (Rattus norvegicus [27]): 1.3 mL | Time (Rattus norvegicus [28]): 7.95 s | Activity [39]: 77.2%

Cc1ccc(NC2=CC(=O)CCC2)cc1
inhibition [29]: 34.2% | inhibition [30]: 11.2%
